According to patent publication US9242959B2, “(Aza)benzhydryl ether derivatives, their process of preparation and their use as H4-receptor ligands for therapeutical applications” (BIOPROJET, priority 2012, dated 2016):
Where a name gives a salt, the structure may show the parent alone.

Columns and labels:
[1] = molecular target: T1, human H4 receptor (Homo sapiens, UniProt Q9H3N8); assay: [3H]Histamine binding assay on membranes of CHO cells stably expressing human H4 receptor
T1 construct: expressed in transfected cells
T1 sequence (Q9H3N8 whole entry): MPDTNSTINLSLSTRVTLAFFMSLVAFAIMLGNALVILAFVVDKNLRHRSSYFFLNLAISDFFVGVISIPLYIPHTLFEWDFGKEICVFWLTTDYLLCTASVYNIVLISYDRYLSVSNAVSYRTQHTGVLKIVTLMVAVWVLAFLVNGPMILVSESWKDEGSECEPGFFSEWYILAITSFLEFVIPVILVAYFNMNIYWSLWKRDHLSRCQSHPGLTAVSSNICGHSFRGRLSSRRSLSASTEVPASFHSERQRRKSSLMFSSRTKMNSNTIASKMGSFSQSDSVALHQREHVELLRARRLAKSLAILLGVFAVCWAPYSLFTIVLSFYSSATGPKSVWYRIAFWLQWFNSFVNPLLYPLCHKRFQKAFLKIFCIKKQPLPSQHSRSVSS
Protocol: CHO cells stably expressing human H4 receptor were grown until sub-confluence and centrifuged at 300 g 15 minutes at 4° C. Pellets were resuspended in buffer I Tris-HCl 50 mM, MgCl2 10 mM, NaCl 140 mM, pH=7.4 supplemented by a 1/50 dilution of a mix of protease inhibitors. The obtained suspension is stirred gently and submitted to a […] exerted through a syringe. The cell lysate is then centrifuged at 300 g 15 minutes at 4° C. in order to eliminate nucleus and cell scraps. The obtained supernatant was then centrifuged at 48000 g for 30 minutes at 4° C. The final pellet is resuspended in buffer I with a potter homogenizer. Aliquots were frozen in liquid nitrogen and stored until use at −80° C. Protein content is measured by the Bradford method.
Defreezed membranes were diluted at a final concentration of 20 μg/180 μL/well in a binding buffer containing 50 mM Tris/HCl, 0.5 mM EDTA, pH=7.4 and distributed in 96 well polystyrene microplate. [^3H] […] Non specific binding was estimated in the presence of 10 μM BP1.2404 (JNJ 7777120). The reaction was terminated by filtration through GF/B filters pre-soaked 2 hours at 4° C. in 1% polyethyleneimine. Filters were rinsed 3 times with 250 μl of ice cold incubation binding buffer.
The filter-bound radioactivity was measured in a liquid scintillation counter Microbeta TRILUX® with 50 μl of scintillation fluid.
The hH4 binding investigated by use of [^3H]

[2] = molecular target: T1, human H4 receptor; assay: GTPγ[35S] binding assay on membranes of SH-SY5Y cells stably expressing human H4 receptor; type: biochemical
Protocol: SH-SY5Y cells stably expressing human H4 receptor are grown until sub-confluence and centrifuged at 300 g 15 minutes at 4° C. Pellets are resuspended in buffer I Tris-HCl 50 mM, MgCl2 10 mM, NaCl 140 mM, pH=7.4 supplemented by Leupeptin 10 μg/mL, Phenyl Methyl Sulphonyl Fluoride (PMSF) 0.1 mM, Aprotinin 2 μg/mL and Pepstatin 2 μM (or a 1/50 dilution of a mix of protease inhibitors). The obtained suspension is stirred gently and submitted to a […] exerted through a syringe. The cell lysate is then centrifuged at 300 g 15 minutes at 4° C. in order to eliminate nucleus and cell scraps. The obtained supernatant is then centrifuged at 48000 g for 30 minutes at 4° C. The final pellet is resuspended in buffer I with a potter homogenizer. Aliquots are frozen in liquid nitrogen and stored until use at −80° C. Protein content is measured by the Bradford method.
Defreezed membranes are diluted at a final concentration of 5 μg/180 μL/well in buffer I supplemented by GDP 10 μM and distributed in 96 well polystyrene microplate. GTPγ [^35S] labelled ligand (0.2-0.3 nM) is added for additional 30 minutes. After transfer in a Millipore GF/C HTS® microplate, the filtration of the rectional mix is followed by a three times 250 μl wash to stop the reaction.
The filter-bound radioactivity is measured in a liquid scintillation counter Microbeta TRILUX® with 50 μl of scintillation fluid.
Results are expressed with IC50 and Ki values.

Row | SMILES | melting point [°C] | Ki [1] [nM] | IC50 [2] [nM]
1 | CN1CCC(OC(c2ccccn2)c2ccccc2O)CC1 (stereo not shown) (as salt: oxalate) [Example 19, 2-[(1-Methylpiperidin-4-yloxy)pyridin-2-ylmethyl]phenol, oxalate] | 70 | – | –
2 | CN1CCC(OC(c2ccccn2)c2cc(OC(F)(F)F)ccc2F)CC1.O=C(O)C(=O)O.O=C(O)C(=O)O (stereo not shown) [Example 1, 2-[(2-Fluoro-5-trifluoromethoxyphenyl)(1-methylpiperidin-4-yloxy)methyl]pyridine, dioxalate] | 45 | < 300 | < 300
3 | Cc1ccc(C(OC2CCN(C)CC2)c2ccc(Cl)cn2)c(F)c1.O=C(O)C(=O)O (stereo not shown) [Example 2, 5-Chloro-2-[(2-fluoro-4-methylphenyl)(1-methylpiperidin-4-yloxy)methyl]pyridine, oxalate] | 165 | < 30 | < 300
4 | Cc1ccc(C(OC2CCN(C)CC2)c2ccccn2)c(F)c1.O=C(O)C(=O)O.O=C(O)C(=O)O (stereo not shown) [Example 3, 2-[(2-Fluoro-4-methylphenyl)(1-methylpiperidin-4-yloxy)methyl]pyridine, dioxalate] | 59 | < 300 | –
5 | CN1CCC(OC(c2ccc(Cl)cn2)c2cc(OC(F)(F)F)ccc2F)CC1.O=C(O)C(=O)O (stereo not shown) [Example 4, 5-Chloro-2-[(2-fluoro-5-trifluoromethoxyphenyl)(1-methylpiperidin-4-yloxy)methyl]pyridine, oxalate] | 75 | < 300 | < 300
6 | CN1CCC(OC(c2cccc(C#CCCCCN)c2)c2ccccn2)CC1 (stereo not shown) [Example 5, 6-{3-[(1-Methylpiperidin-4-yloxy)pyridin-2-ylmethyl]phenyl}hex-5-ynylamine, oxalate] | – | < 300 | < 300
7 | CN1CCC(OC(c2ccncc2)c2cc(OC(F)(F)F)ccc2F)CC1.O=C(O)C(=O)O.O=C(O)C(=O)O (stereo not shown) [Example 6, 4-[(2-Fluoro-5-trifluoromethoxyphenyl)(1-methylpiperidin-4-yloxy)methyl]pyridine, dioxalate] | 61 | < 300 | –
8 | Cc1ccnc(C(OC2CCN(C)CC2)c2cc(OC(F)(F)F)ccc2F)c1.O=C(O)C(=O)O.O=C(O)C(=O)O (stereo not shown) [Example 8, 2-[(2-Fluoro-5-trifluoromethoxyphenyl)(1-methylpiperidin-4-yloxy)methyl]-4-methylpyridine, dioxalate] | 43 | < 300 | –
9 | CN1CCC(OC(c2ccc(Cl)cc2)c2ccc(Cl)cn2)CC1.O=C(O)C(=O)O (stereo not shown) [Example 9, 5-Chloro-2-[(4-chlorophenyl)(1-methylpiperidin-4-yloxy)methyl]pyridine, oxalate] | 190 | < 300 | –
10 | CN1CCC(OC(c2ccc(F)cn2)c2cc(OC(F)(F)F)ccc2F)CC1.O=C(O)C(=O)O (stereo not shown) [Example 11, 5-Fluoro-2-[(2-fluoro-5-trifluoromethoxyphenyl)(1-methylpiperidin-4-yloxy)methyl]pyridine, oxalate] | 113 | < 1000 | –
11 | COc1cccc(C(OC2CCN(C)CC2)c2ccc(Cl)cn2)c1.O=C(O)C(=O)O (stereo not shown) [Example 12, 5-Chloro-2-[(3-methoxyphenyl)(1-methylpiperidin-4-yloxy)methyl]pyridine, oxalate] | 175 | < 1000 | –
12 | CN1CCC(OC(c2cccc(I)c2)c2ccc(Cl)cn2)CC1.O=C(O)C(=O)O (stereo not shown) [Example 13, 5-Chloro-2-[(3-iodophenyl)(1-methylpiperidin-4-yloxy)methyl]pyridine, oxalate] | 130 | < 300 | –
13 | Cc1ccc(C(OC2CCN(C)CC2)c2cc(C(F)(F)F)ccn2)c(F)c1.O=C(O)C(=O)O (stereo not shown) [Example 14, 2-[(2-Fluoro-4-methylphenyl)(1-methylpiperidin-4-yloxy)methyl]-4-trifluoromethylpyridine, oxalate] | 104 | < 300 | –
14 | CN1CCC(OC(c2ccc(F)cn2)c2ccc(F)c(F)c2O)CC1 (stereo not shown) [Example 15, 2,3-Difluoro-6-[(5-fluoropyridin-2-yl)(1-methylpiperidin-4-yloxy)methyl]phenol] | 73 | < 1000 | –
15 | CN1CCC(OC(c2ccc(Cl)cn2)c2ccc(F)c(F)c2O)CC1 (stereo not shown) [Example 16, 6-[(5-Chloropyridin-2-yl)(1-methylpiperidin-4-yloxy)methyl]-2,3-difluorophenol] | 68 | < 300 | –
16 | CCOC(=O)NCCCCC#Cc1cccc(C(OC2CCN(C)CC2)c2ccccn2)c1.O=C(O)C(=O)O (stereo not shown) [Example 17, (6-{3-[(1-Methylpiperidin-4-yloxy)pyridin-2-ylmethyl]phenyl}hex-5-ynyl)carbamic acid ethyl ester, oxalate] | 77 | < 1000 | –
17 | CN1CCC(OC(c2ccccn2)c2ccccc2O)CC1 (stereo not shown) [Example 19, 2-[(1-Methylpiperidin-4-yloxy)pyridin-2-ylmethyl]phenol, oxalate] | – | < 300 | –
18 | CN1CCC(OC(c2ccc(F)cn2)c2ccc(F)cc2O)CC1.O=C(O)C(=O)O (stereo not shown) [Example 20, 5-Fluoro-2-[(5-fluoropyridin-2-yl)(1-methylpiperidin-4-yloxy)methyl]phenol, oxalate] | 105 | < 300 | –
19 | Cc1ccc(C(OC2CCN(C)CC2)c2ccc(F)cn2)c(O)c1F (stereo not shown) [Example 21, 2-Fluoro-6-[(5-fluoropyridin-2-yl)(1-methylpiperidin-4-yloxy)methyl]-3-methylphenol] | 62 | < 300 | –
20 | Cc1ccc(C(OC2CCN(C)CC2)c2ccc(Cl)cn2)c(O)c1F (stereo not shown) [Example 22, 6-[(5-Chloropyridin-2-yl)(1-methylpiperidin-4-yloxy)methyl]-2-fluoro-3-methylphenol] | 67 | < 30 | –
21 | CN1CCC(OC(c2ccc(Cl)cn2)c2ccc(F)cc2O)CC1 (stereo not shown) [Example 23, 2-[(5-Chloropyridin-2-yl)(1-methylpiperidin-4-yloxy)methyl]-5-fluorophenol] | 57 | < 30 | –
22 | Cc1ccc(C(OC2CCN(C)CC2)c2ccc(F)cn2)c(O)c1.O=C(O)C(=O)O (stereo not shown) [Example 24, 2-[(5-Fluoropyridin-2-yl)(1-methylpiperidin-4-yloxy)methyl]-5-methylphenol, oxalate] | 77 | < 30 | –
23 | Cc1ccc(C(OC2CCN(C)CC2)c2ccc(Cl)cn2)c(O)c1.O=C(O)C(=O)O (stereo not shown) [Example 25, 2-[(5-Chloropyridin-2-yl)(1-methylpiperidin-4-yloxy)methyl]-5-methylphenol, oxalate] | 77 | < 30 | –
24 | Cc1ccc(C(OC2CCN(C)CC2)c2cc(F)ccn2)c(O)c1F (stereo not shown) [Example 26, 2-Fluoro-6-[(4-fluoropyridin-2-yl)(1-methylpiperidin-4-yloxy)methyl]-3-methylphenol] | 64 | < 300 | –
25 | Cc1ccc(C(OC2CCN(C)CC2)c2cccc(I)c2)cc1.O=C(O)C(=O)O (stereo not shown) [Example 27, 4-[(3-Iodophenyl)-p-tolylmethoxy]-1-methylpiperidine, oxalate] | 60 | < 1000 | –
26 | Cc1ccc(C(OC2CCN(C)CC2)c2ccc3ccccc3c2)c(F)c1.O=C(O)C(=O)O (stereo not shown) [Example 29, 4-[(2-Fluoro-4-methylphenyl)naphthalen-2-yl-methoxy]-1-methylpiperidine, oxalate] | 122 | – | < 1000
27 | Cc1ccc(C(OC2CCN(C)CC2)c2ccc(Cl)cc2)c(F)c1.O=C(O)C(=O)O (stereo not shown) [Example 34, 4-[(4-Chlorophenyl)(2-fluoro-4-methylphenyl)methoxy]-1-methylpiperidine, oxalate] | 165 | < 300 | –
28 | CN1CCC(OC(c2ccc(Cl)cc2)c2cccc(C#CCCCCN)c2)CC1 (stereo not shown) [Example 36, 6-{3-[(4-Chlorophenyl)(1-methylpiperidin-4-yloxy)methyl]phenyl}hex-5-ynylamine, dioxalate] | – | < 30 | < 30
29 | CN1CCC(OC(c2cccc(I)c2)c2ccccn2)CC1 (stereo not shown) [Example 37, 2-[(3-Iodophenyl)(1-methylpiperidin-4-yloxy)methyl]pyridine, oxalate] | – | < 1000 | –
